Assay results from patent US4563479A, “Synergistic radiation protective pharmaceutical compositions” (Chinoin Gyogyszer es Vegyeszeti Termekek Gyar RT, priority 1979, dated 1986).
Counter-ions that a name gives are not always drawn. Like-named read-outs stand apart in the source and are kept apart here.

What was measured:
[1] = cited from earlier work
mice = experiment: Survival and survival coefficient "S" of irradiated mice (X-ray or 60Co gamma), Tables 2-4; type: in vivo; settings: 140 mg/kg AET alone i.p.
Experimental: Experiments are carried out in mice. Irradiation was carried out with X-ray (rtg) and with gamma rays obtained from ^60 Co isotope. Survival was observed on the 30th day after irradiation and expressed by using survival coefficient "S" according to Kaluszyner. […] Mice were treated intraperitoneally.

[2] = cited from earlier work; remark: listed apart in the source

Compound: N=C(N)SCCN [AET, aminoethyl-isothiuronium-chloride-hydrochloride]
- LD50 p.o. ([1]; listed as aminoethyl-isothiuronium-chloride-hydrochloride): 710 mg/kg
- Survival % (mice; X-ray (rtg) 630 R): 15%
- Survival coefficient "S" (mice; X-ray (rtg) 630 R): 0.39
- Survival % (mice; X-ray (rtg) 800 R): 0%
- Survival coefficient "S" (mice; X-ray (rtg) 800 R): 0.27
- Survival % (mice; gamma 900 rad): 5%
- Survival coefficient "S" (mice; gamma 900 rad): 0.37
- Survival % (mice; gamma 1100 rad): 0%
- Survival coefficient "S" (mice; gamma 1100 rad): 0.28

Compound: N=C(N)SCCN [aminoethyl-isothiuronium-bromide-hydrobromide]
- LD50 p.o. [1]: 1200 mg/kg

Compound: Cl.N[C@@H](CS)C(=O)O [cysteine-hydrochloride]
- Radiation protective dose ([2]; in vivo): 1900 mg/kg

Compound: N=C(N)NCCS [mercaptoethyl-guanidine]
- LD50 p.o. [1]: 350 mg/kg
- Therapeutic index ([2]; LD50 p.o. / radiation protective dose): 1.75
